According to US12351595B2, “Composition comprising O-cyclic phytosphingosine-1-phosphate for preventing or treating Parkinson's disease” (AXCESO BIOPHARMA CO., LTD., priority 2019, dated 2025):

What was measured:
SH-SY5Y cells = experiment: MPP+-treated Parkinson's disease cell model, cell survival (MTT assay); assay type: cell-based, human
Description: To prepare a Parkinson's disease cell model by inducing oxidative stress with MPP^+ (1-methyl-4-phenylpyridinium iodide, Sigma), MPP^+ was dissolved in a phosphate buffer solution, diluted to a final concentration of 3 mM, and added to a nerve cell culture medium. To confirm the efficacy of the cP1P drug in the MPP^+ environment, SH-SY5Y cells were pretreated with cP1P drug at concentrations of 10 nM, 100 nM, and 1000 nM, respectively, for 1 hour, and then exposed to oxidative stress by treatment with 3 mM MPP^+ for 24 hours. The efficacy of the cP1P drug on the survival of SH-SY5Y cells after 24 hours of exposure to oxidative stress was determined by MTT assay.

[1] = system: SH-SY5Y human nerve cell line; experiment: Proliferation of SH-SY5Y human nerve cells (MTT assay); assay type: cell-based; conditions: 48 hours
Description: The SH-SY5Y human nerve cell line purchased from ATCC was used as a nerve cell line to evaluate the effect of the cP1P drug on the proliferation of dopaminergic human nerve cells. Dulbeco's Modified Eagle's Media/high glucose (with 10% FBS, 0.5% P/S) was used as a medium for culturing nerve cells, and the nerve cells were cultured at 37° C. in 5% CO2 incubator.
In order to observe the effect of cP1P drug on the proliferation of the dopaminergic human nerve cells, SH-SY5Y cells were treated with cP1P drug at concentrations of 10 nM, 100 nM and 1000 nM, respectively, and cultured for 48 hours. MTT assay (Molecular Probes) was performed according to the manufacturer's method to measure the cell proliferation rate.

SH-SY5Y nerve cells = experiment: Rotenone-treated Parkinson's disease cell model, necrotic cell death (LDH detection kit); assay type: cell-based, human
Description: Rotenone is a substance widely used in cell models to induce Parkinson's disease. It is well known that when a nerve cell is treated with rotenone, mitochondrial function is destroyed, and oxidative stress is induced to cause death of the nerve cell.
The SH-SY5Y nerve cell culture medium was treated with cP1P drug at concentrations of 100 nM and 1000 nM, respectively, and cultured for 24 hours. Then, rotenone (Sigma) was dissolved in DMSO, diluted to a final concentration of 2 μM, and added to the SH-SY5Y nerve cell culture medium. The SH-SY5Y nerve cells were cultured for an additional 24 hours. SH-SY5Y nerve cells were obtained and cultured in the same manner as in Example 1.
Necrotic cell death was measured for the cultured SH-SY5Y nerve cells using a lactate dehydrogenase (LDH) detection kit (BioVision).
For comparison, the necrotic cell death was also measured for the control group that was treated only with DMSO without cP1P drug and rotenone, and the control group that was treated only with diluted rotenone solution without cP1P drug. In addition, the necrotic cell death was measured for the treatment of the nerve cells with the cP1P drug at concentrations of 100 nM and 1000 nM, respectively.

[2] = system: Tyrosine hydroxylase (TH); experiment: Tyrosine hydroxylase (TH) expression in SH-SY5Y nerve cells (immunohistochemistry and western blot); assay type: cell-based, human; conditions: 24 hours
Description: Tyrosine hydroxylase (TH) is an enzyme that converts amino acid tyrosine into L-DOPA, a precursor of dopamine, and plays an important role in the formation of dopamine in nerve cells.
In order to confirm the efficacy of the cP1P drug on TH expression in SH-SY5Y nerve cells, SH-SY5Y nerve cell culture was treated with the cP1P drug at concentrations of 10 nM and 100 nM, respectively. TH expression was determined by immunohistochemistry and western blot after 24 hours.

C[n+]1ccc(-c2ccccc2)cc1.[I-] [MPP^+, 1-methyl-4-phenylpyridinium iodide, reference compound]
nerve cell death (SH-SY5Y cells; MPP+ 3 mM only, 24 hours): the nerve cells were killed

CCCCCCCCCCCCCC[C@@H](O)[C@H]1OP(=O)(O)OC[C@@H]1N [cP1P, O-cyclic phytosphingosine-1-phosphate]
effect on the proliferation of SH-SY5Y cells ([1]; 10 nM): effect on the proliferation of SH-SY5Y cells appeared | effect on the nerve cell proliferation ([1]; 100 nM (of 10, 100, 1000 nM)): highest | degree of cell death (SH-SY5Y nerve cells; cP1P 100 nM and 1000 nM alone, without rotenone): reduced the degree of cell death compared to the control group treated only with DMSO | nerve cell death (SH-SY5Y nerve cells; cP1P 100 nM and 1000 nM for 24 hours, then rotenone 2 μM for 24 hours): inhibited to the level equivalent to that of DMSO treatment without rotenone | nerve cell death (SH-SY5Y cells; cP1P 100 nM pretreatment 1 hour, then 3 mM MPP+ 24 hours): significantly reduced | nerve cell death (SH-SY5Y cells; cP1P pretreatment (10, 100, 1000 nM) 1 hour, then 3 mM MPP+ 24 hours): significantly reduced | expression of the TH enzyme ([2]; 10 nM): increased | expression of the TH enzyme ([2]; 100 nM): increased

C=C(C)[C@H]1Cc2c(ccc3c2O[C@@H]2COc4cc(OC)c(OC)cc4[C@@H]2C3=O)O1 [rotenone, reference compound]
degree of nerve cell death (SH-SY5Y nerve cells; rotenone 2 μM only, 24 hours): exceed 30%
